According to US20060069132A1, “Azolecarboxamide herbicides” (priority 2004, published 2006):

Tests used:
Experiment in all cases: Test E pre-/postemergence herbicide test
green foxtail = format: in vivo, Setaria viridis
In short: (§1)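 Seeds were planted and treated preemergence with test chemicals in a non-phytotoxic solvent mixture containing surfactant; plants at 2 to 18 cm (1- to 4-leaf stage) received postemergence applications of the same formulation. After 12 to 14 days in a greenhouse, injury was visually rated against untreated controls on a 0 to 100 scale.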

goosegrass = format: in vivo, Eleusine indica
In short: as §1

common ragweed = format: in vivo, Ambrosia elatior
In short: as §1

mustard = format: in vivo, Brassica nigra
In short: as §1

dallisgrass = format: in vivo, Paspalum dilatatum
In short: as §1

southern sandbur = format: in vivo, Cenchrus echinatus
In short: as §1

Italian ryegrass = format: in vivo, Lolium multiflorum
In short: as §1

tropical spiderwort = format: in vivo, Commelina benghalensis
In short: as §1

Canada horseweed = format: in vivo, Erigeron Canadensis
From the text: Seeds of plant species selected from bipinnate beggarticks (Bidens bipinnata L.), hairy beggarticks (Bidens radiata Thuill.), bermudagrass (Cynodon dactylon (L.) Pers.), Surinam grass (Urochloa decumbens (Staph) R. D. Webster, previously named Brachiaria decumbens Stapf), large crabgrass (Digitaria sanguinalis (L.) Scop.), green foxtail (Setaria viridis (L.) P. Beauv.), goosegrass (Eleusine indica (L.) Gaertn.), johnsongrass (Sorghum halepense (L.) Pers.), kochia (Kochia scoparia (L.) Schrad.), pitted morningglory (Ipomoea lacunosa L.), purple nutsedge (Cyperus rotundus L.), common ragweed (Ambrosia elatior L.), mustard (Brassica nigra (L.) W. D. J. Koch), guineagrass (Panicum maximum Jacq.), dallisgrass (Paspalum dilatatum Poir.), barnyardgrass (Echinochloa crus-galli (L). P. Beauv.), southern sandbur (Cenchrus echinatus L.), common sowthistle (Sonchus oleraceous L.), prickly sida (Sida spinosa L.), Italian ryegrass (Lolium multiflorum Lam.), common purslane (Portulaca oleracea L.), broadleaf signalgrass (Brachiaria platyphylla (Griseb.) Nash), common groundsel (Senecio vulgaris L.), common chickweed (Stellaria media (L.) Vill/Cyr.), tropical spiderwort (Commelina benghalensis L.), annual bluegrass (Poa annua L.), downy bromegrass (Bromus tectorum L.), itchgrass (Rottboellia cochinchinensis (L.) L.f.), quackgrass (Elytrigia repens (L.) Nevski), Canada horseweed (Erigeron Canadensis L.), field bindweed (Convolvulus arvensis L.), spotted spurge (Euphorbia maculata L.), common mallow (Malva sylvestris (=s silvestris) L.), and Russian thistle (Salsola kali L. ssp. Ruthenica (Iljin) Soo) were planted and treated preemergence with test chemicals formulated in a non-phytotoxic solvent mixture which included a surfactant.
At the same time, plants selected from these weed species were treated with postemergence applications of some of the test chemicals formulated in the same manner. Plants ranged in height from 2 to 18 cm (1- to 4-leaf stage) for postemergence treatments. Treated plants and controls were maintained in a greenhouse for 12 to 14 days, after which time all species were compared to controls and visually evaluated. Plant response ratings, summarized in Table E, are based on a scale of 0 to 100 where 0 is no effect and 100 is complete control. A dash (-) response means no test result.

common mallow = format: in vivo, Malva sylvestris
In short: as §1

[1] = Preemergence, 62 g ai/ha, scale 0 to 100
[2] = Preemergence, 125 g ai/ha, scale 0 to 100
[3] = Preemergence, 250 g ai/ha, scale 0 (no effect) to 100 (complete control)
[4] = Preemergence, 500 g ai/ha, scale 0 (no effect) to 100 (complete control)
[5] = Postemergence, 500 g ai/ha, scale 0 to 100
[6] = Postemergence, 250 g ai/ha, scale 0 to 100
[7] = postemergence, 125 g ai/ha, scale 0 to 100
[8] = postemergence, 62 g ai/ha, scale 0 to 100

CCc1nn(C(C)(C)C)nc1C(=O)Nc1cccc(C(=S)N(C)C)c1 [Compound 395]
Plant response rating, Foxtail, Green (green foxtail; [1]): 10
Plant response rating, Foxtail, Green (green foxtail; [2]): 40
Plant response rating, Foxtail, Green (green foxtail; [3]): 80
Plant response rating, Foxtail, Green (green foxtail; [4]): 90
Plant response rating, Goosegrass (goosegrass; [1]): 80
Plant response rating, Goosegrass (goosegrass; [2]): 80
Plant response rating, Goosegrass (goosegrass; [3]): 90
Plant response rating, Goosegrass (goosegrass; [4]): 95
Plant response rating, Ragweed (common ragweed; [1]): 10
Plant response rating, Ragweed (common ragweed; [2]): 20
Plant response rating, Ragweed (common ragweed; [3]): 60
Plant response rating, Ragweed (common ragweed; [4]): 60
Plant response rating, Black Mustard (mustard; [1]): 40
Plant response rating, Black Mustard (mustard; [2]): 60
Plant response rating, Black Mustard (mustard; [3]): 90
Plant response rating, Black Mustard (mustard; [4]): 95
Plant response rating, Dallisgrass (dallisgrass; [1]): 50
Plant response rating, Dallisgrass (dallisgrass; [2]): 70
Plant response rating, Dallisgrass (dallisgrass; [3]): 90
Plant response rating, Dallisgrass (dallisgrass; [4]): 90
Plant response rating, Sandbur (southern sandbur; [1]): 50
Plant response rating, Sandbur (southern sandbur; [2]): 60
Plant response rating, Sandbur (southern sandbur; [3]): 80
Plant response rating, Sandbur (southern sandbur; [4]): 80
Plant response rating, Ryegrass, Italian (Italian ryegrass; [1]): 20
Plant response rating, Ryegrass, Italian (Italian ryegrass; [2]): 80
Plant response rating, Ryegrass, Italian (Italian ryegrass; [3]): 90
Plant response rating, Ryegrass, Italian (Italian ryegrass; [4]): 95
Plant response rating, Spiderwort (tropical spiderwort; [3]): 60
Plant response rating, Spiderwort (tropical spiderwort; [4]): 90
Plant response rating, Horseweed (Canada horseweed; [1]): 90
Plant response rating, Horseweed (Canada horseweed; [2]): 100
Plant response rating, Horseweed (Canada horseweed; [3]): 100
Plant response rating, Horseweed (Canada horseweed; [4]): 100
Plant response rating, Mallow (common mallow; [1]): 20
Plant response rating, Mallow (common mallow; [2]): 50
Plant response rating, Mallow (common mallow; [4]): 60

CCn1nc(C(C)(C)C)cc1C(=O)Nc1cccc(C(N)=O)n1 [Compound 162, 6-[[[3-(1,1-dimethylethyl)-1-ethyl-1H-pyrazol-5-yl]carbonyl]amino]-2-pyridinecarboxamide]
Plant response rating, Foxtail, Green (green foxtail; [5]): 95
Plant response rating, Foxtail, Green (green foxtail; [6]): 85
Plant response rating, Foxtail, Green (green foxtail; [1]): 30
Plant response rating, Foxtail, Green (green foxtail; [2]): 85
Plant response rating, Foxtail, Green (green foxtail; [3]): 100
Plant response rating, Foxtail, Green (green foxtail; [4]): 100
Plant response rating, Foxtail, Green (green foxtail; [7]): 50
Plant response rating, Foxtail, Green (green foxtail; [8]): 30
Plant response rating, Goosegrass (goosegrass; [5]): 98
Plant response rating, Goosegrass (goosegrass; [6]): 95
Plant response rating, Goosegrass (goosegrass; [1]): 60
Plant response rating, Goosegrass (goosegrass; [2]): 90
Plant response rating, Goosegrass (goosegrass; [3]): 95
Plant response rating, Goosegrass (goosegrass; [4]): 95
Plant response rating, Goosegrass (goosegrass; [7]): 80
Plant response rating, Goosegrass (goosegrass; [8]): 50
Plant response rating, Ragweed (common ragweed; [5]): 90
Plant response rating, Ragweed (common ragweed; [6]): 80
Plant response rating, Ragweed (common ragweed; [1]): 20
Plant response rating, Ragweed (common ragweed; [2]): 60
Plant response rating, Ragweed (common ragweed; [3]): 75
Plant response rating, Ragweed (common ragweed; [4]): 95
Plant response rating, Ragweed (common ragweed; [7]): 75
Plant response rating, Ragweed (common ragweed; [8]): 50
Plant response rating, Black Mustard (mustard; [5]): 95
Plant response rating, Black Mustard (mustard; [6]): 90
Plant response rating, Black Mustard (mustard; [1]): 20
Plant response rating, Black Mustard (mustard; [2]): 50
Plant response rating, Black Mustard (mustard; [3]): 80
Plant response rating, Black Mustard (mustard; [4]): 100
Plant response rating, Black Mustard (mustard; [7]): 75
Plant response rating, Black Mustard (mustard; [8]): 60
Plant response rating, Dallisgrass (dallisgrass; [5]): 85
Plant response rating, Dallisgrass (dallisgrass; [6]): 70
Plant response rating, Dallisgrass (dallisgrass; [1]): 70
Plant response rating, Dallisgrass (dallisgrass; [2]): 95
Plant response rating, Dallisgrass (dallisgrass; [3]): 95
Plant response rating, Dallisgrass (dallisgrass; [4]): 95
Plant response rating, Dallisgrass (dallisgrass; [7]): 40
Plant response rating, Dallisgrass (dallisgrass; [8]): 20
Plant response rating, Sandbur (southern sandbur; [5]): 90
Plant response rating, Sandbur (southern sandbur; [6]): 80
Plant response rating, Sandbur (southern sandbur; [1]): 20
Plant response rating, Sandbur (southern sandbur; [2]): 70
Plant response rating, Sandbur (southern sandbur; [3]): 80
Plant response rating, Sandbur (southern sandbur; [4]): 80
Plant response rating, Sandbur (southern sandbur; [7]): 50
Plant response rating, Sandbur (southern sandbur; [8]): 20
Plant response rating, Ryegrass, Italian (Italian ryegrass; [5]): 100
Plant response rating, Ryegrass, Italian (Italian ryegrass; [6]): 98
Plant response rating, Ryegrass, Italian (Italian ryegrass; [1]): 50
Plant response rating, Ryegrass, Italian (Italian ryegrass; [2]): 95
Plant response rating, Ryegrass, Italian (Italian ryegrass; [3]): 95
Plant response rating, Ryegrass, Italian (Italian ryegrass; [4]): 95
Plant response rating, Ryegrass, Italian (Italian ryegrass; [7]): 95
Plant response rating, Ryegrass, Italian (Italian ryegrass; [8]): 50
Plant response rating, Spiderwort (tropical spiderwort; [5]): 65
Plant response rating, Spiderwort (tropical spiderwort; [6]): 60
Plant response rating, Spiderwort (tropical spiderwort; [1]): 20
Plant response rating, Spiderwort (tropical spiderwort; [2]): 40
Plant response rating, Spiderwort (tropical spiderwort; [3]): 75
Plant response rating, Spiderwort (tropical spiderwort; [4]): 75
Plant response rating, Spiderwort (tropical spiderwort; [7]): 10
Plant response rating, Spiderwort (tropical spiderwort; [8]): 0
Plant response rating, Horseweed (Canada horseweed; [5]): 100
Plant response rating, Horseweed (Canada horseweed; [6]): 100
Plant response rating, Horseweed (Canada horseweed; [1]): 100
Plant response rating, Horseweed (Canada horseweed; [2]): 100
Plant response rating, Horseweed (Canada horseweed; [3]): 100
Plant response rating, Horseweed (Canada horseweed; [4]): 100
Plant response rating, Horseweed (Canada horseweed; [7]): 70
Plant response rating, Horseweed (Canada horseweed; [8]): 70
Plant response rating, Mallow (common mallow; [5]): 100
Plant response rating, Mallow (common mallow; [6]): 80
Plant response rating, Mallow (common mallow; [1]): 50
Plant response rating, Mallow (common mallow; [2]): 70
Plant response rating, Mallow (common mallow; [3]): 100
Plant response rating, Mallow (common mallow; [4]): 100
Plant response rating, Mallow (common mallow; [7]): 60
Plant response rating, Mallow (common mallow; [8]): 40
